{"source": "patent US8524755B2", "about": "(priority 2009, dated 2013)", "key": {"[1]": {"biological_target": "T1, Somatostatin sst5 (h) (Homo sapiens, UniProt P35346)", "T1 construct": "expressed in transfected cells; host or cells: CHO cells", "T1 sequence (P35346 whole entry)": "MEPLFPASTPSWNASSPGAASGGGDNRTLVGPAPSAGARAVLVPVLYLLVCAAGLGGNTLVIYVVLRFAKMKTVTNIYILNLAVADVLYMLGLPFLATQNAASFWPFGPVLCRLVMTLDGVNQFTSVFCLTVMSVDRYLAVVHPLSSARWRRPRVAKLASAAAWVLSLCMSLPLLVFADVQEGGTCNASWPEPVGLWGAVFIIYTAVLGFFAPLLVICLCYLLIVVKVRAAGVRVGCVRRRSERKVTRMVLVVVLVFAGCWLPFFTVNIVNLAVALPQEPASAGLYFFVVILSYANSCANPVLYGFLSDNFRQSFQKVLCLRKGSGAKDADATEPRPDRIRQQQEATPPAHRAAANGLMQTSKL", "assay": "Binding sst5 (h) (ag)", "settings": "read-out: % Inhibition of Control Specific Binding @ 10 μM", "procedure": "(§1) Radioligand binding assay methods utilized to measure the activity of compounds of the invention will be familiar to those skilled in the art. In each assay case, the assay components such as, for example, the cell-type, ligand, reference compound and the like, will be familiar to practitioners of such an assay.\n(§2) Analysis and Expression of Results: Compounds of the invention were tested in the biochemical assays and percent inhibition of specific binding was determined. The specific ligand binding to the receptors is defined as the difference between the total binding and the nonspecific binding determined in the presence of an excess of unlabelled ligand. The results are expressed as a percent inhibition of control specific binding (100−((measured specific binding/control specific binding)×100)) obtained in the presence of test compounds."}, "[2]": {"biological_target": "T2, acetylcholinesterase (h) (Homo sapiens, UniProt P22303)", "T2 construct": "host or cells: HEK-293 cells", "T2 sequence (P22303 32-614)": "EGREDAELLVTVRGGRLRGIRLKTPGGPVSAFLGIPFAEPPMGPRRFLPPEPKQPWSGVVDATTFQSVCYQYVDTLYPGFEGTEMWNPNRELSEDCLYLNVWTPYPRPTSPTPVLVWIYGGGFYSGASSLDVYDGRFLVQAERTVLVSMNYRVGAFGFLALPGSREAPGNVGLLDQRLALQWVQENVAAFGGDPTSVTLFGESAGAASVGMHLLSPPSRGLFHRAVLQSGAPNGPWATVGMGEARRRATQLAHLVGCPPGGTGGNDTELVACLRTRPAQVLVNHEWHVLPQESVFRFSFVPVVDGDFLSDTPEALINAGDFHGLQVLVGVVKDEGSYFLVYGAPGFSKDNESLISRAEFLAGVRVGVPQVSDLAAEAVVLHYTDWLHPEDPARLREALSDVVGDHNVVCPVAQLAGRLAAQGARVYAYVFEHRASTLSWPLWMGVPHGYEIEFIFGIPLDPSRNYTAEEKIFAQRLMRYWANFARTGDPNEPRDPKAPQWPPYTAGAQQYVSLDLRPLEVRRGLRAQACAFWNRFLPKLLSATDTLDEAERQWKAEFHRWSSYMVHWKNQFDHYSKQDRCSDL", "assay": "Enzyme assay acetylcholinesterase (h)", "assay_type": "biochemical", "settings": "read-out: % Inhibition of Control Values @ 10 μM", "description": "(§3) The enzyme assays provided below will be familiar to those skilled in the art.\n(§4) Analysis and Expression of Results: The results are expressed as a percent of control specific activity ((measured specific activity/control specific activity)×100) obtained in the presence of the test compounds."}, "[3]": {"biological_target": "T3, Androgen Receptor (Homo sapiens, UniProt P10275)", "T3 construct": "expressed in transfected cells; host or cells: PathHunter NHRPro cell lines", "T3 sequence (P10275 1-920)": "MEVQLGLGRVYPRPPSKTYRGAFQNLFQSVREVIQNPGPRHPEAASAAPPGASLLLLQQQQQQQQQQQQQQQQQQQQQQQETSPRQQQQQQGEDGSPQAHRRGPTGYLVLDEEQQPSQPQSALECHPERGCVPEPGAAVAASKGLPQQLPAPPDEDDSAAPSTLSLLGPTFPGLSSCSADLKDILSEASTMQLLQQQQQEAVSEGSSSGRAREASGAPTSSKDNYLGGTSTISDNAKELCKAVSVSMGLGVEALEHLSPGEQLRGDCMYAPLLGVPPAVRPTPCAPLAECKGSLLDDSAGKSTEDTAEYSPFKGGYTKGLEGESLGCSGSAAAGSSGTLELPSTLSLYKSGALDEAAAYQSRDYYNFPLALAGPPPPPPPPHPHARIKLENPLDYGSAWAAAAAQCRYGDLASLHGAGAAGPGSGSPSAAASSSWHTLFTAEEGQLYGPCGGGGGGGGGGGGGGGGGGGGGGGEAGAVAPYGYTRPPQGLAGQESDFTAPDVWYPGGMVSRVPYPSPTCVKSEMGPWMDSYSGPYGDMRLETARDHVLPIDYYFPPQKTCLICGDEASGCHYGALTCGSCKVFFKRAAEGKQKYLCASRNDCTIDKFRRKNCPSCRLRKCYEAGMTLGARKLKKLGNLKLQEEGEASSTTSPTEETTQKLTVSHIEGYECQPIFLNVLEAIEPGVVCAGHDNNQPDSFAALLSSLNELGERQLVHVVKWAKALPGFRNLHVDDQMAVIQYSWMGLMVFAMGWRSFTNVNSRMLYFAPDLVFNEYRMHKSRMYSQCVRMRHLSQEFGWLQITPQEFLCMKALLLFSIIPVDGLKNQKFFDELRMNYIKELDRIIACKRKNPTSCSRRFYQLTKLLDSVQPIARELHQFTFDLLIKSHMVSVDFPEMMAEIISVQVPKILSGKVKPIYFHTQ", "assay": "Androgen Receptor Nuclear Translocation Assay", "assay_type": "cell-based", "settings": "for EC50: agonist mode, PathHunter NHRPro cells, 5 h, read-out: AR Nuclear Translocation Assay Agonist Mode EC50; for IC50: antagonist mode, agonist challenge at EC80, read-out: AR Nuclear Translocation Assay Antagonist Mode IC50", "procedure": "Once it was established that the cells were healthy and growing normally, cells were transferred from flasks using trypsin-free cell dissociation buffer and seeded into white walled clear bottom 384-well microplates for compound profiling. For profiling, cells were seeded at a density of 10,000 cells per well in a total volume of 50 μL and were allowed to adhere and recover overnight prior to compound addition. Media contained charcoal-dextran filtered serum to reduce the level of hormones present.\nAgonist Format: Intermediate dilution of compound stocks were generated such that 5.5 μL of 10X compound could be added to each well with a final DMSO concentration of 1% of total volume. For profiling compound in agonist mode, the cells were incubated in the presence of compound at 37° C. for 5 h.\nAntagonist Format: Agonist dose curves were performed to determine the EC80 value for the following antagonist testing with compounds. 5.5 μL of 10× agonist was added to each well with an equal concentration of vehicle present. EC80 agonist concentration was determined directly from agonist dose curve. For antagonist determination, cells were pre-incubated with antagonist followed by agonist challenge at the EC80 concentration: 5.5 μL of 10× compound added to cells and incubated at 37° C. for 1 h; 5.5 μL of 11× EC80 agonist added to cells and incubated at 37° C. for 5 h.\nSignal Detection: After appropriate compound incubation, assay signal was generated through a single addition of 30 μL (50% v/v) of PathHunter Detection reagent cocktail for agonist and antagonist assays respectively followed by 1 h incubation at room temperature. Microplates were read following signal generation with a PerkinElmer ViewLux™ instrument for chemiluminescent signal detection.\nData Analysis: Dose curves in the presence and absence of compound were plotted using GraphPad Prism."}, "[4]": {"biological_target": "T4, Melanocortin MC4 (h) (Homo sapiens, UniProt P32245)", "T4 construct": "expressed in transfected cells; host or cells: CHO cells", "T4 sequence (P32245 whole entry)": "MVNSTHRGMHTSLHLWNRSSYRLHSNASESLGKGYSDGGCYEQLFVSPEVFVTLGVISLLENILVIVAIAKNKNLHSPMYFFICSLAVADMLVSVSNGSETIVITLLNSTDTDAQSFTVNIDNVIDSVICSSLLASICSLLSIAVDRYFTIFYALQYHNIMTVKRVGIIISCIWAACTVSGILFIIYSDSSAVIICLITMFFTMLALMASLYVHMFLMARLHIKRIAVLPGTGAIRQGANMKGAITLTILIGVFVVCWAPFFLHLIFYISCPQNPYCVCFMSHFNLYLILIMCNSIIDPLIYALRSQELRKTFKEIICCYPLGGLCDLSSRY", "assay": "Binding MC4 (h) (ag)", "settings": "read-out: % Inhibition of Control Specific Binding @ 10 μM", "procedure": "as §1, §2"}, "[5]": {"system": "σ (ns)", "assay": "Binding σ (ns) (ag)", "set-up": "species or system rat", "procedure": "as §1, §2"}, "[6]": {"biological_target": "T5, Vasopressin V2 (h) (Homo sapiens, UniProt P30518)", "T5 construct": "expressed in transfected cells; host or cells: CHO cells", "T5 sequence (P30518 whole entry)": "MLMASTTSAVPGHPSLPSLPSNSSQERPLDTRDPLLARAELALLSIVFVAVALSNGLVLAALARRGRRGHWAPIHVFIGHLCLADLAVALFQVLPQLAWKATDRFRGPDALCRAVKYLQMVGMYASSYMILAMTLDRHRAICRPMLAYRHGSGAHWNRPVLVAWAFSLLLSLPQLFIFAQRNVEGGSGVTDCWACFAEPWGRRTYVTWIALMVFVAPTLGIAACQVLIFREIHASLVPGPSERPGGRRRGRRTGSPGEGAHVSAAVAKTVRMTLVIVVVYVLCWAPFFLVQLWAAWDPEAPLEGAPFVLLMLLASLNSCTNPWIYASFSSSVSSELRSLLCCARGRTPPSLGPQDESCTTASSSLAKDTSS", "assay": "Binding V2 (h) (ag)", "settings": "read-out: % Inhibition of Control Specific Binding @ 10 μM", "procedure": "as §1, §2"}, "[7]": {"biological_target": "T6, MAO-A (h) (Homo sapiens, UniProt P21397)", "T6 construct": "human placenta; from tissue; host or cells: human placenta", "T6 sequence (P21397 1-527)": "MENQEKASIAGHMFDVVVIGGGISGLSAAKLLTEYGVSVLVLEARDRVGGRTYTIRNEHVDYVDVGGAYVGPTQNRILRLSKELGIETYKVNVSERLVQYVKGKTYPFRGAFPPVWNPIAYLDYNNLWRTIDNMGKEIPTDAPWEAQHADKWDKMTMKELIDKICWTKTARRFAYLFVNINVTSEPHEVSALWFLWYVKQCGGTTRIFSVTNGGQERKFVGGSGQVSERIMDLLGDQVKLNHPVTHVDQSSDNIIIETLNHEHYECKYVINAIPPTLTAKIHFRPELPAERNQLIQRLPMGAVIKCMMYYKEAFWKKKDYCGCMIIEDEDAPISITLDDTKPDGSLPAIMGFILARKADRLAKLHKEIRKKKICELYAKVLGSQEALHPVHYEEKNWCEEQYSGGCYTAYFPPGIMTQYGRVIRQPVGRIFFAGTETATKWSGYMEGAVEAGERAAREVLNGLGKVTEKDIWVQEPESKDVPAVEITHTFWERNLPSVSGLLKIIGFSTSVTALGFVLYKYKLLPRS", "assay": "Enzyme assay MAO-A (h)", "assay_type": "biochemical", "settings": "read-out: % Inhibition of Control Values @ 10 μM", "description": "as §3, §4"}}, "data": [{"smiles": "CNC(=O)c1ccc(N2C(=O)N(c3ccc(C#N)c(C(F)(F)F)c3)C(=O)C2(C)C)cc1F", "note": "[(MIV), 4-(3-(4-cyano-3-(trifluoromethyl)phenyl)-5,5-dimethyl-2,4-dioxoimidazolidin-1-yl)-2-fluoro-N-methylbenzamide]", "values": [{"measurement": "inhibition at 10 µM", "setting": "[1]", "value": -7, "unit": "%"}, {"measurement": "inhibition at 10 µM", "setting": "[2]", "value": 23, "unit": "%"}, {"measurement": "EC50", "setting": "[3]", "value": "> 60", "unit": "µM"}, {"measurement": "IC50", "setting": "[3]", "value": 11.6, "unit": "µM"}, {"measurement": "inhibition at 10 µM", "setting": "[4]", "value": -15, "unit": "%"}, {"measurement": "% Inhibition of Control Specific Binding @ 10 μM", "setting": "[5]", "value": 50, "unit": "%"}, {"measurement": "inhibition at 10 µM", "setting": "[6]", "value": -1, "unit": "%"}, {"measurement": "inhibition at 10 µM", "setting": "[7]", "value": 11, "unit": "%"}]}, {"smiles": "CC1(C)C(=O)N(c2ccc(C#N)c(C(F)(F)F)c2)C(=S)N1c1ccc(C(=O)O)c(F)c1", "note": "[(MI), 4-(3-(4-cyano-3-(trifluoromethyl)phenyl)-5,5-dimethyl-4-oxo-2-thioxoimidazolidin-1-yl)-2-fluorobenzoic acid]", "values": [{"measurement": "inhibition at 10 µM", "setting": "[1]", "value": -25, "unit": "%"}, {"measurement": "inhibition at 10 µM", "setting": "[2]", "value": 51, "unit": "%"}, {"measurement": "EC50", "setting": "[3]", "value": "> 60", "unit": "µM"}, {"measurement": "IC50", "setting": "[3]", "value": "> 60", "unit": "µM"}, {"measurement": "inhibition at 10 µM", "setting": "[4]", "value": -23, "unit": "%"}, {"measurement": "% Inhibition of Control Specific Binding @ 10 μM", "setting": "[5]", "value": 20, "unit": "%"}, {"measurement": "inhibition at 10 µM", "setting": "[6]", "value": 5, "unit": "%"}, {"measurement": "inhibition at 10 µM", "setting": "[7]", "value": -5, "unit": "%"}]}, {"smiles": "CC1(C)C(=O)N(c2ccc(C#N)c(C(F)(F)F)c2)C(=O)N1c1ccc(C(N)=O)c(F)c1", "note": "[(MIII), 4-(3-(4-cyano-3-(trifluoromethyl)phenyl)-5,5-dimethyl-2,4-dioxoimidazolidin-1-yl)-2-fluorobenzamide]", "values": [{"measurement": "inhibition at 10 µM", "setting": "[1]", "value": 2, "unit": "%"}, {"measurement": "inhibition at 10 µM", "setting": "[2]", "value": -1, "unit": "%"}, {"measurement": "EC50", "setting": "[3]", "value": "> 60", "unit": "µM"}, {"measurement": "IC50", "setting": "[3]", "value": 16.2, "unit": "µM"}, {"measurement": "inhibition at 10 µM", "setting": "[4]", "value": -11, "unit": "%"}, {"measurement": "% Inhibition of Control Specific Binding @ 10 μM", "setting": "[5]", "value": 34, "unit": "%"}, {"measurement": "inhibition at 10 µM", "setting": "[6]", "value": 4, "unit": "%"}, {"measurement": "inhibition at 10 µM", "setting": "[7]", "value": 14, "unit": "%"}]}, {"smiles": "CC1(C)C(=O)N(c2ccc(C#N)c(C(F)(F)F)c2)C(=S)N1c1ccc(C(N)=O)c(F)c1", "note": "[(MII), 4-(3-(4-Cyano-3-(trifluoromethyl)phenyl)-5,5-dimethyl-4-oxo-2-thioxoimidazolidin-1-yl)-2-fluorobenzamide]", "values": [{"measurement": "inhibition at 10 µM", "setting": "[1]", "value": 16, "unit": "%"}, {"measurement": "inhibition at 10 µM", "setting": "[2]", "value": 9, "unit": "%"}, {"measurement": "EC50", "setting": "[3]", "value": "> 60", "unit": "µM"}, {"measurement": "IC50", "setting": "[3]", "value": 3.2, "unit": "µM"}, {"measurement": "inhibition at 10 µM", "setting": "[4]", "value": -25, "unit": "%"}, {"measurement": "% Inhibition of Control Specific Binding @ 10 μM", "setting": "[5]", "value": 39, "unit": "%"}, {"measurement": "inhibition at 10 µM", "setting": "[6]", "value": 3, "unit": "%"}, {"measurement": "inhibition at 10 µM", "setting": "[7]", "value": 0, "unit": "%"}]}]}
